ChEMBL document CHEMBL1201862, “PubChem BioAssay data set” (2004)
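Briefly, cells in 96-well plates were exposed to five compound concentrations for 48 h, and endpoints were estimated by linear interpolation. Here, GI50 denotes the concentration required for 50% inhibition of growth.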 Activity calls are given as the source filed them. No stated cut-off is given here; in the data, active = GI50 up to about 1.1 µM and inactive = higher.

Key:
Assay in all cases: NCI anticancer screen, dose series, 48 h
UACC-257 = test system: UACC-257
MCF7 = test system: MCF7
OVCAR-3 = test system: OVCAR-3
U-251 = test system: U-251
DU-145 = test system: DU-145
OVCAR-4 = test system: OVCAR-4
BT-549 = test system: BT-549
NCI-H460 = test system: NCI-H460
SW-620 = test system: SW-620
UO-31 = test system: UO-31
786-0 = test system: 786-0
HCT-15 = test system: HCT-15
SK-OV-3 = test system: SK-OV-3
A498 = test system: A498
OVCAR-5 = test system: OVCAR-5
SF-268 = test system: SF-268
RXF 393 = test system: RXF 393
NCI/ADR-RES = test system: NCI/ADR-RES
IGROV-1 = test system: IGROV-1
SK-MEL-5 = test system: SK-MEL-5
SK-MEL-28 = test system: SK-MEL-28
MOLT-4 = test system: MOLT-4
OVCAR-8 = test system: OVCAR-8
SF-539 = test system: SF-539
KM12 = test system: KM12
SNB-75 = test system: SNB-75
HT-29 = test system: HT-29
MDA-MB-435 = test system: MDA-MB-435
HCT-116 = test system: HCT-116
TK-10 = test system: TK-10
UACC-62 = test system: UACC-62
CAKI-1 = test system: CAKI-1
A549 = test system: A549
MDA-MB-231 = test system: MDA-MB-231
NCI-H522 = test system: NCI-H522
SR = test system: SR
HL-60 = test system: HL-60
M14 = test system: M14
K562 = test system: K562
COLO 205 = test system: COLO 205
LOX IMVI = test system: LOX IMVI
HCC 2998 = test system: HCC 2998
SF-295 = test system: SF-295
RPMI-8226 = test system: RPMI-8226
HOP-62 = test system: HOP-62
SN12C = test system: SN12C
ACHN = test system: ACHN
NCI-H226 = test system: NCI-H226
EKVX = test system: EKVX
PC-3 = test system: PC-3
CCRF-CEM = test system: CCRF-CEM
T47D = test system: T47D
SK-MEL-2 = test system: SK-MEL-2
NCI-H23 = test system: NCI-H23
HOP-92 = test system: HOP-92
Malme-3M = test system: Malme-3M
SNB-19 = test system: SNB-19
Hs-578T = test system: Hs-578T
MDA-N = test system: MDA-N

## N#CI1OC(=O)c2ccccc21
UACC-257
  GI50: > 100 µM (inactive)
MCF7
  GI50: 60.7 µM (inactive)
OVCAR-3
  GI50: > 100 µM (inactive)
U-251
  GI50: > 100 µM (inactive)
DU-145
  GI50: > 100 µM (inactive)
OVCAR-4
  GI50: > 100 µM (inactive)
BT-549
  GI50: 91.2 µM (inactive)
NCI-H460
  GI50: > 100 µM (inactive)
SW-620
  GI50: > 100 µM (inactive)
UO-31
  GI50: > 100 µM (inactive)
786-0
  GI50: > 100 µM (inactive)
HCT-15
  GI50: 37.2 µM
SK-OV-3
  GI50: > 100 µM (inactive)
A498
  GI50: > 100 µM (inactive)
OVCAR-5
  GI50: > 100 µM (inactive)
SF-268
  GI50: > 100 µM (inactive)
RXF 393
  GI50: > 100 µM (inactive)
NCI/ADR-RES
  GI50: > 100 µM (inactive)
IGROV-1
  GI50: > 100 µM (inactive)
SK-MEL-5
  GI50: > 100 µM (inactive)
SK-MEL-28
  GI50: 92 µM (inactive)
MOLT-4
  GI50: 92.9 µM (inactive)
OVCAR-8
  GI50: > 100 µM (inactive)
SF-539
  GI50: > 100 µM (inactive)
KM12
  GI50: > 100 µM (inactive)
SNB-75
  GI50: > 100 µM (inactive)
HT-29
  GI50: > 100 µM (inactive)
MDA-MB-435
  GI50: > 100 µM (inactive)
HCT-116
  GI50: > 100 µM (inactive)
TK-10
  GI50: > 100 µM (inactive)
UACC-62
  GI50: > 100 µM (inactive)
CAKI-1
  GI50: 40.7 µM (inactive)
A549
  GI50: > 100 µM (inactive)
MDA-MB-231
  GI50: > 100 µM (inactive)
NCI-H522
  GI50: 18.2 µM (inactive)
SR
  GI50: 23.6 µM (inactive)
HL-60
  GI50: 59.6 µM (inactive)
M14
  GI50: > 100 µM (inactive)
K562
  GI50: 39.8 µM (inactive)
COLO 205
  GI50: > 100 µM (inactive)
LOX IMVI
  GI50: > 100 µM (inactive)
HCC 2998
  GI50: > 100 µM (inactive)
SF-295
  GI50: > 100 µM (inactive)
RPMI-8226
  GI50: 38.5 µM (inactive)
HOP-62
  GI50: > 100 µM (inactive)
SN12C
  GI50: > 100 µM (inactive)
ACHN
  GI50: > 100 µM (inactive)
NCI-H226
  GI50: > 100 µM (inactive)
EKVX
  GI50: > 100 µM (inactive)
PC-3
  GI50: > 100 µM (inactive)
CCRF-CEM
  GI50: 2.83 µM (inactive)
T47D
  GI50: > 100 µM (inactive)
SK-MEL-2
  GI50: > 100 µM (inactive)
NCI-H23
  GI50: > 100 µM (inactive)

## CCOC(=O)c1c(SC(=O)c2ccc(Cl)cc2)n(-c2ccccc2)c(=S)n(-c2ccccc2)c1=O
UACC-257
  GI50: > 100 µM (inactive)
MCF7
  GI50: > 100 µM (inactive)
OVCAR-3
  GI50: > 100 µM (inactive)
U-251
  GI50: > 100 µM (inactive)
DU-145
  GI50: > 100 µM (inactive)
OVCAR-4
  GI50: > 100 µM (inactive)
HOP-92
  GI50: > 100 µM (inactive)
NCI-H460
  GI50: > 100 µM (inactive)
SW-620
  GI50: > 100 µM (inactive)
786-0
  GI50: > 100 µM (inactive)
HCT-15
  GI50: > 100 µM
SK-OV-3
  GI50: > 100 µM (inactive)
A498
  GI50: > 100 µM (inactive)
OVCAR-5
  GI50: > 100 µM (inactive)
SF-268
  GI50: > 100 µM (inactive)
RXF 393
  GI50: > 100 µM (inactive)
NCI/ADR-RES
  GI50: > 100 µM (inactive)
IGROV-1
  GI50: > 100 µM (inactive)
SK-MEL-28
  GI50: > 100 µM (inactive)
MOLT-4
  GI50: > 100 µM (inactive)
OVCAR-8
  GI50: > 100 µM (inactive)
SF-539
  GI50: > 100 µM (inactive)
KM12
  GI50: > 100 µM (inactive)
SNB-75
  GI50: > 100 µM (inactive)
HT-29
  GI50: > 100 µM (inactive)
MDA-MB-435
  GI50: > 100 µM (inactive)
HCT-116
  GI50: > 100 µM (inactive)
TK-10
  GI50: > 100 µM (inactive)
UACC-62
  GI50: > 100 µM (inactive)
CAKI-1
  GI50: > 100 µM (inactive)
A549
  GI50: > 100 µM (inactive)
MDA-MB-231
  GI50: > 100 µM (inactive)
NCI-H522
  GI50: > 100 µM (inactive)
SR
  GI50: > 100 µM (inactive)
HL-60
  GI50: > 100 µM (inactive)
M14
  GI50: > 100 µM (inactive)
K562
  GI50: > 100 µM (inactive)
COLO 205
  GI50: > 100 µM (inactive)
LOX IMVI
  GI50: > 100 µM (inactive)
HCC 2998
  GI50: > 100 µM (inactive)
SF-295
  GI50: > 100 µM (inactive)
HOP-62
  GI50: > 100 µM (inactive)
SN12C
  GI50: > 100 µM (inactive)
ACHN
  GI50: > 100 µM (inactive)
NCI-H226
  GI50: > 100 µM (inactive)
EKVX
  GI50: > 100 µM (inactive)
Malme-3M
  GI50: > 100 µM (inactive)
PC-3
  GI50: > 100 µM (inactive)
SNB-19
  GI50: > 100 µM (inactive)
CCRF-CEM
  GI50: > 100 µM (inactive)
T47D
  GI50: > 100 µM (inactive)
Hs-578T
  GI50: > 100 µM (inactive)
MDA-N
  GI50: > 100 µM (inactive)
NCI-H23
  GI50: > 100 µM (inactive)

## CCOC(=O)/C(C#N)=C/Nc1c(C)n(C)n(-c2ccccc2)c1=O
UACC-257
  GI50: > 100 µM (inactive)
MCF7
  GI50: > 100 µM (inactive)
OVCAR-3
  GI50: > 100 µM (inactive)
U-251
  GI50: > 100 µM (inactive)
DU-145
  GI50: > 100 µM (inactive)
OVCAR-4
  GI50: > 100 µM (inactive)
HOP-92
  GI50: > 100 µM (inactive)
BT-549
  GI50: > 100 µM (inactive)
SW-620
  GI50: > 100 µM (inactive)
UO-31
  GI50: > 100 µM (inactive)
786-0
  GI50: > 100 µM (inactive)
HCT-15
  GI50: > 100 µM
SK-OV-3
  GI50: > 100 µM (inactive)
A498
  GI50: > 100 µM (inactive)
OVCAR-5
  GI50: > 100 µM (inactive)
RXF 393
  GI50: > 100 µM (inactive)
NCI/ADR-RES
  GI50: 47.6 µM (inactive)
IGROV-1
  GI50: > 100 µM (inactive)
SK-MEL-5
  GI50: > 100 µM (inactive)
MOLT-4
  GI50: > 100 µM (inactive)
OVCAR-8
  GI50: > 100 µM (inactive)
SF-539
  GI50: > 100 µM (inactive)
KM12
  GI50: > 100 µM (inactive)
MDA-MB-435
  GI50: > 100 µM (inactive)
HCT-116
  GI50: > 100 µM (inactive)
TK-10
  GI50: > 100 µM (inactive)
UACC-62
  GI50: > 100 µM (inactive)
CAKI-1
  GI50: > 100 µM (inactive)
A549
  GI50: > 100 µM (inactive)
MDA-MB-231
  GI50: > 100 µM (inactive)
NCI-H522
  GI50: > 100 µM (inactive)
SR
  GI50: > 100 µM (inactive)
HL-60
  GI50: > 100 µM (inactive)
M14
  GI50: > 100 µM (inactive)
K562
  GI50: > 100 µM (inactive)
COLO 205
  GI50: > 100 µM (inactive)
LOX IMVI
  GI50: > 100 µM (inactive)
HCC 2998
  GI50: > 100 µM (inactive)
SF-295
  GI50: > 100 µM (inactive)
RPMI-8226
  GI50: > 100 µM (inactive)
SN12C
  GI50: > 100 µM (inactive)
ACHN
  GI50: > 100 µM (inactive)
NCI-H226
  GI50: 43.4 µM (inactive)
EKVX
  GI50: > 100 µM (inactive)
Malme-3M
  GI50: > 100 µM (inactive)
PC-3
  GI50: > 100 µM (inactive)
CCRF-CEM
  GI50: > 100 µM (inactive)
MDA-N
  GI50: > 100 µM (inactive)
SK-MEL-2
  GI50: > 100 µM (inactive)
NCI-H23
  GI50: > 100 µM (inactive)
